The record followed here is ChEMBL document CHEMBL4020831, “Discovery of GDC-0853: A Potent, Selective, and Noncovalent Bruton's Tyrosine Kinase Inhibitor in Early Clinical Development” (J Med Chem, 2018).

Active and inactive are the calls of the source. The rule behind the calls is not given here.

One series concerns the target T1, TXK (Homo sapiens, UniProt P42681).
T1 sequence (P42681 whole entry): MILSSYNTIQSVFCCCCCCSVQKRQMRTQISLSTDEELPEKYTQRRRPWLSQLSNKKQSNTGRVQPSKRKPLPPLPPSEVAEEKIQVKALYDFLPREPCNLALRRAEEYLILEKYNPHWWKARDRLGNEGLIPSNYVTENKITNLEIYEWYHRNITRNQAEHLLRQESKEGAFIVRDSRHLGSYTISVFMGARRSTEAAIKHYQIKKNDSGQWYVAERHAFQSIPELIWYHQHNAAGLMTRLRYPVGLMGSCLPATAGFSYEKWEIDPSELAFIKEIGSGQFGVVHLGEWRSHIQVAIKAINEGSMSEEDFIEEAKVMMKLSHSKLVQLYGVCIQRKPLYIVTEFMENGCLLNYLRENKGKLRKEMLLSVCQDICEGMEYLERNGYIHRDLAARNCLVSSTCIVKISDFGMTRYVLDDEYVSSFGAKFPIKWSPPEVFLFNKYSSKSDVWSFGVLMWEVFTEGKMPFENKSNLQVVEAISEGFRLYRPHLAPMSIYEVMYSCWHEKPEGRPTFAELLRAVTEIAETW
The experiment in a line: Inhibition of human full length GST-tagged TXK expressed in baculovirus at 1 uM by Z'-LYTE assay.

In series [1] the test system is Rattus norvegicus. Briefly: Time at which plasma concentration stays above in vitro IC50 for BTK autophosphorylation at Y223 in rat whole blood in Lewis rat collagen-induced arthritis model at 1 to 16 mg/kg, po qd measured during 24 hrs dosing.
In another series the target is Cytochrome P450 1A2 (Homo sapiens, UniProt P05177). The experiment in a line: Inhibition of CYP1A2 (unknown origin). It counts as ADME.
For another series, the system named is Salmonella typhimurium. Briefly: Genotoxicity in Salmonella typhimurium TA97a after 48 to 72 hrs in presence of liver S9 fraction by Ames test. It counts as toxicity. Particulars: salmonella enterica subsp. enterica serovar typhimurium.
The subject of series [2] is Rattus norvegicus. Briefly: Antiinflammatory activity in Lewis rat collagen-induced arthritis model assessed as reduction in ankle inflammation at 0.125 to 2 mg/kg, po administered bid for 16 days. It is filed as functional, organism-based.
In series [3] the test system is Rattus norvegicus. Briefly: Time at which plasma concentration stays above in vitro IC70 for BTK autophosphorylation at Y223 in rat whole blood in Lewis rat collagen-induced arthritis model at 0.125 to 2 mg/kg, po bid measured during 12 hrs dosing.

Cytochrome P450 1A2, sequence (P05177 whole entry): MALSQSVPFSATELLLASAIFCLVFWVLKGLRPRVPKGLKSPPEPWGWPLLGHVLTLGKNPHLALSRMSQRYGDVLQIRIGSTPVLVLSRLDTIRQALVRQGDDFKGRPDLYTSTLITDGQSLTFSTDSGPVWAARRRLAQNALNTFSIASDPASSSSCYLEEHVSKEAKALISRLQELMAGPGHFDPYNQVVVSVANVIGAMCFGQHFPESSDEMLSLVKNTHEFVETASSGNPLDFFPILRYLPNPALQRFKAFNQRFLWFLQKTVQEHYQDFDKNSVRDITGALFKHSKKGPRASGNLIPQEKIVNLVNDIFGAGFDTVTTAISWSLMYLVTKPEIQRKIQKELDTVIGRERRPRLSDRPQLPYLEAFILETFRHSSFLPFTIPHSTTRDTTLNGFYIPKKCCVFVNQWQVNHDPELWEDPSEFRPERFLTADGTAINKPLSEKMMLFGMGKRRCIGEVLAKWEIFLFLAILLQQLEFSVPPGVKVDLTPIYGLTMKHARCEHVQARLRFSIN

For `C[C@H]1CN(C2COC2)CCN1c1ccc(Nc2cc(-c3ccnc(N4CCn5c(cc6c5CC(C)(C)C6)C4=O)c3CO)cn(C)c2=O)nc1` [FENEBRUTINIB], 1 µM produced 4% inhibition against TXK. Also, the Time is 12 h in the series on Rattus norvegicus [1] and 6 h with Rattus norvegicus [3]. In addition, at Cytochrome P450 1A2, the IC50 is more than 5 µM. The Activity result in the series on Salmonella typhimurium is on record as “Non-Toxic”. Besides, the outcome in the series on Rattus norvegicus [2] was Active.
